The values that follow come from patent US7829665B2 (priority 2005, dated 2010).

Assay [1] has as its system HCV sub-genomic replicon in GS4.3 cells (HuH-7 hepatoma cells). Nature of the assay: Quantitation by ELISA of Neomycin phosphotransferase II (NPTII) in the HCV sub-genomic replicon, GS4.3. Type of assay: cell-based, hepatitis C virus. Conditions: Hepatitis C virus, Huh-7; GS4.3 cells, 72 h incubation, NPTII ELISA; read-out: Replicon EC50. The method, boiled down:
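HuH-7 GS4.3 cells carrying HCV sub-genomic replicon 1377/NS3-3′, treated 72 h at 37 °C without G418 with 3-fold dilutions from 10 μM to 56 pM (1% DMSO). NPTII in cell lysates measured by direct ELISA with TMB readout at 450 nm. EC50 from 4-parameter fit of percent DMSO-control signal.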
(In an ELISA, binding on a coated surface is turned into a signal by an enzyme label.)

Assay [2] concerns the target T1, full-length NS3/NS4A-2 (HCV NS3 protease) (Hepatitis C virus genotype 1a, UniProt P27958).
T1 construct: Recombinant E. coli or Baculovirus full-length NS3 was diluted to 3.33 μM with assay buffer; made in house; host or cells: E. coli or baculovirus (BV) expression system
Put plainly: NS3-NS4 protease assay / NS3 inhibition assay (RETS1 substrate, fluorescence kinetic read). Type of assay: biochemical. The method, boiled down:
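Full-length NS3 from E. coli (2 nM in assay) or baculovirus (3 nM) was precomplexed with excess NS4A-2 peptide, then preincubated 10 min at room temperature with serially diluted compounds starting at 50 microM. Reaction was started with RETS1 substrate at 8 μM before addition and read kinetically for 30 min (ex 335/em 495 nm). Four-parameter IC50s were converted to Ki by Cheng-Prusoff using Km 2.03 μM (E. coli) or 1.74 μM (BV).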

Where [3] appears, read: recombinant E. coli or Baculovirus full-length NS3 with NS4A-2, read-out: NS3-NS4 IC50.

Like-named read-outs stand apart in the source and are kept apart here.

T1 sequence (P27958 1027-1657): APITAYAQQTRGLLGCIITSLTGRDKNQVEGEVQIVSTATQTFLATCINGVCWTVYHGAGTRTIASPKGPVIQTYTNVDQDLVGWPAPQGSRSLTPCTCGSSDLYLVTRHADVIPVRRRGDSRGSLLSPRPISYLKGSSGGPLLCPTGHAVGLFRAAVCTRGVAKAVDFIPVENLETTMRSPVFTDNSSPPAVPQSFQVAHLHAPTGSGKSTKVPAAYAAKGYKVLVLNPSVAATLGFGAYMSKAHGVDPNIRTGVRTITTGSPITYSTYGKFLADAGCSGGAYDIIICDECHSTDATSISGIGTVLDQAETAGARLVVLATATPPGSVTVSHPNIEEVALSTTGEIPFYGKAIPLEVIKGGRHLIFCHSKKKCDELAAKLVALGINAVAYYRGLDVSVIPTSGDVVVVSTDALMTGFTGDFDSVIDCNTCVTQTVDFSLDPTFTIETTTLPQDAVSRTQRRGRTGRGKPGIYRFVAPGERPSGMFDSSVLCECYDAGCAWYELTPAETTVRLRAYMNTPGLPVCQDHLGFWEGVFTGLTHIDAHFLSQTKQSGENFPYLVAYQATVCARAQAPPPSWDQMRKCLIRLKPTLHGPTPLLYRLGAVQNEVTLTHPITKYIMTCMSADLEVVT

For orientation: EC50 means the midpoint of the concentration-response curve. In general, IC50 refers to the concentration that gives 50% inhibition. Turning to `O=C1N[C@]2(C(=O)NS(=O)(=O)C3CC3)C[C@H]2/C=C\CCCCC[C@H](NCc2ccc(Cl)o2)C(=O)N2C[C@H](OC(=O)N3Cc4cccc(F)c4C3)C[C@@H]12` [Compound 914], the EC50 in assay [1] was less than 0.1 µM. Further, the IC50 in assay [2] (setting [3]) was less than 0.1 µM.
Consider `CC(C)(C)OC(=O)N[C@H]1CCCCC/C=C\[C@@H]2C[C@@]2(C(=O)NS(=O)(=O)NC2CC2)NC(=O)[C@@H]2C[C@@H](OC(=O)N3Cc4cccc(Cl)c4C3)CN2C1=O` [Compound 213], for which the EC50 in assay [1] was less than 0.1 µM. Besides, in assay [2] (setting [3]), the IC50 was less than 0.1 µM.
As for `N[C@H]1CCCCC/C=C\[C@@H]2C[C@@]2(C(=O)NCC2CC2)NC(=O)[C@@H]2C[C@@H](OC(=O)N3Cc4cccc(F)c4C3)CN2C1=O` [Compound 622], the EC50 in assay [1] is less than 10 µM. Further, in assay [2] (setting [3]), the 50% inhibitory concentration (IC50) was less than 10 µM.
Consider `CC(C)Nc1c(N[C@H]2CCCCC/C=C\[C@@H]3C[C@@]3(C(=O)NS(=O)(=O)C3CC3)NC(=O)[C@@H]3C[C@@H](OC(=O)N4Cc5cccc(F)c5C4)CN3C2=O)c(=O)c1=O` [Compound 184], for which the EC50 in assay [1] was less than 10 µM. Further, in assay [2] (setting [3]), the IC50 is less than 0.1 µM.
In the same order, the values of `CC(C)(C)OC(=O)N[C@H]1CCCCC/C=C\[C@@H]2C[C@@]2(C(=O)NCC#N)NC(=O)[C@@H]2C[C@@H](OC(=O)N3Cc4cccc(F)c4C3)CN2C1=O` [Compound 615] are less than 10 µM and less than 1 µM.
For the compound `CC(C)(C)OC(=O)N[C@H]1CCC(O)CC/C=C\[C@@H]2C[C@@]2(C(=O)O)NC(=O)[C@@H]2C[C@@H](OC(=O)N3Cc4cccc(F)c4C3)CN2C1=O` (some centres unmarked) [Compound 1017], the EC50 in assay [1] was greater than 10 µM. The IC50 in assay [2] (setting [3]) is less than 1 µM.
On to `CC(C)(C)OC(=O)N[C@H]1CCCCCC[C@@H]2C[C@@]2(C(=O)NS(=O)(=O)C2CC2)NC(=O)[C@@H]2C[C@@H](OC(=O)N3Cc4cccc(F)c4C3)CN2C1=O` [Compound 269], for which the EC50 in assay [1] was less than 0.1 µM. Moreover, the IC50 in assay [2] (setting [3]) is less than 0.1 µM.
Turning to `N[C@H]1CCCCC/C=C\[C@@H]2C[C@@]2(C(=O)NS(=O)(=O)NC2CCCC2)NC(=O)[C@@H]2C[C@@H](OC(=O)N3Cc4cccc(Cl)c4C3)CN2C1=O` [Compound 221], the EC50 in assay [1] is less than 10 µM. The IC50 in assay [2] (setting [3]) is less than 0.1 µM.
In the same order, the values of `O=C(N[C@H]1CCCCC/C=C\[C@@H]2C[C@@]2(C(=O)NS(=O)(=O)c2cc(Cl)sc2Cl)NC(=O)[C@@H]2C[C@@H](OC(=O)N3Cc4cccc(F)c4C3)CN2C1=O)OC1CCCC1` [Compound 173] are less than 0.1 µM and less than 0.1 µM.
On to `CC(C)(C)OC(=O)N[C@H]1CCCCC/C=C\[C@@H]2C[C@@]2(C(=O)O)NC(=O)[C@@H]2C[C@@H](OC(=O)N3Cc4ccc(C(F)(F)F)cc4C3)CN2C1=O` [Compound 110], for which, in assay [1], the EC50 is less than 10 µM. Also, in assay [2] (setting [3]), the half-inhibitory concentration (IC50) was less than 1 µM.
In the same order, the values of `CN(C(=O)[C@@]12C[C@H]1/C=C\CCCCC[C@H](NC(=O)OC(C)(C)C)C(=O)N1C[C@H](OC(=O)N3Cc4cccc(F)c4C3)C[C@H]1C(=O)N2)S(=O)(=O)C1CC1` [Compound 264] are greater than 10 µM and less than 10 µM.
On the same counts, the results for `CC(C)OC(=O)N[C@H]1CCCCC/C=C\[C@@H]2C[C@@]2(C(=O)NC#N)NC(=O)C2C[C@@H](OC(=O)N3Cc4cccc(F)c4C3)CN2C1=O` (some centres unmarked) [Compound 639] are greater than 10 µM and less than 1 µM.
In the same order, the values of `CNC(=O)NC(=O)[C@@]12C[C@H]1/C=C\CCCCC[C@H](NC(=O)OC(C)(C)C)C(=O)N1C[C@H](OC(=O)N3Cc4ccccc4C3)C[C@H]1C(=O)N2` [Compound 702] are less than 1 µM and less than 1 µM.
In the case of `C[C@@H](NC(=O)[C@@]12C[C@H]1/C=C\CCCCC[C@H](NC(=O)OC(C)(C)C)C(=O)N1C[C@H](OC(=O)N3Cc4cccc(F)c4C3)C[C@H]1C(=O)N2)c1ccc(F)cn1` [Compound 629], the EC50 in assay [1] was less than 10 µM. In addition, the 50% inhibitory concentration (IC50) in assay [2] (setting [3]) is less than 1 µM.
On the same counts, the results for `O=C1N[C@]2(C(=O)NS(=O)(=O)C3CC3)C[C@H]2/C=C\CCCCC[C@H](NC(=S)NC2CCCC2)C(=O)N2C[C@H](OC(=O)N3Cc4cccc(F)c4C3)C[C@@H]12` [Compound 240] are less than 1 µM and less than 0.1 µM.
On the same counts, the results for `CC(C)(C)OC(=O)N[C@H]1CCCCC/C=C\[C@@H]2C[C@@]2(C(=O)NS(=O)(=O)C2CC2)NC(=O)[C@@H]2C[C@@H](OC(=O)N3Cc4cccc(C(F)(F)F)c4C3)CN2C1=O` [Compound 170] are less than 0.1 µM and less than 0.1 µM.
As for `N[C@H]1CCCCC/C=C\[C@@H]2C[C@@]2(C(=O)NS(=O)(=O)N2CCC(F)(F)C2)NC(=O)[C@@H]2C[C@@H](OC(=O)N3Cc4cccc(Cl)c4C3)CN2C1=O` [Compound 222], in assay [1], the EC50 is less than 10 µM. In assay [2], the IC50 is less than 0.1 µM.
On the same counts, the results for `N[C@H]1CCCCC/C=C\[C@@H]2C[C@@]2(C(=O)NS(=O)(=O)c2ccc(Cl)s2)NC(=O)[C@@H]2C[C@@H](OC(=O)N3Cc4cccc(Cl)c4C3)CN2C1=O` [Compound 168] are less than 10 µM and less than 0.1 µM.
As for `CCC(C)(C)Nc1c(N[C@H]2CCCCC/C=C\[C@@H]3C[C@@]3(C(=O)NS(=O)(=O)C3CC3)NC(=O)[C@@H]3C[C@@H](OC(=O)N4Cc5cccc(F)c5C4)CN3C2=O)c(=O)c1=O` [Compound 194], in assay [1], the half-maximal effective concentration (EC50) is less than 10 µM. Also, in assay [2] (setting [3]), the concentration for half-maximal inhibition (IC50) was less than 0.1 µM.
In the same order, the values of `CC(CO)(CO)C(=O)N[C@H]1CCCCC/C=C\[C@@H]2C[C@@]2(C(=O)NS(=O)(=O)C2CC2)NC(=O)[C@@H]2C[C@@H](OC(=O)N3Cc4cccc(F)c4C3)CN2C1=O` [Compound 253] are less than 10 µM and less than 0.1 µM.
On the same counts, the results for `O=C1N[C@]2(C(=O)NS(=O)(=O)C3CC3)C[C@H]2/C=C\CCCCC[C@H](Nc2c(N3CCC3)c(=O)c2=O)C(=O)N2C[C@H](OC(=O)N3Cc4cccc(Cl)c4C3)C[C@@H]12` [Compound 241, (2R,6S,13aS,14aR,16aS,Z)-6-(2-(azetidin-1-yl)-3,4-dioxocyclobut-1-enylamino)-14a-(cyclopropylsulfonylcarbamoyl)-5,16-dioxo-1,2,3,5,6,7,8,9,10,11,13a,14,14a,15,16,16a-hexadecahydrocyclopropa[e]pyrrolo[1,2-a][1,4]diazacyclopentadecin-2-yl 4-chloroisoindoline-2-carboxylate] are less than 1 µM and less than 0.1 µM.
On the same counts, the results for `CNC(=O)[C@@H](NC(=O)[C@@]12C[C@H]1/C=C\CCCCC[C@H](NC(=O)OC(C)(C)C)C(=O)N1C[C@H](OC(=O)N3Cc4cccc(F)c4C3)C[C@H]1C(=O)N2)c1ccc(F)cc1` [Compound 631] are less than 1 µM and less than 0.1 µM.
On to `O=C(CCC(F)(F)F)N[C@H]1CCCCC/C=C\[C@@H]2C[C@@]2(C(=O)NS(=O)(=O)C2CC2)NC(=O)[C@@H]2C[C@@H](OC(=O)N3Cc4cccc(Cl)c4C3)CN2C1=O` [Compound 143], for which the EC50 in assay [1] is less than 0.1 µM. In assay [2] (setting [3]), the half-inhibitory concentration (IC50) is less than 0.1 µM.
Regarding `CCN(C)S(=O)(=O)NC(=O)[C@@]12C[C@H]1/C=C\CCCCC[C@H](NC(=O)OC(C)(C)C)C(=O)N1C[C@H](OC(=O)N3Cc4ccccc4C3)C[C@H]1C(=O)N2` [Compound 200], the 50% effective concentration (EC50) in assay [1] was less than 0.1 µM. Also, the IC50 in assay [2] (setting [3]) was less than 0.1 µM.
On to `CC(C)(C)OC(=O)N[C@H]1CCCCC/C=C\[C@@H]2C[C@@]2(C(=O)NC2CC2)NC(=O)[C@@H]2C[C@@H](OC(=O)N3Cc4cccc(F)c4C3)CN2C1=O` [Compound 609], for which the concentration giving a half-maximal response (EC50) in assay [1] is less than 1 µM. The IC50 in assay [2] (setting [3]) is less than 0.1 µM.
